Measurements published in patent US20240131155A1, “T CELLS FOR USE IN THERAPY” (Erasmus University Medical Center Rotterdam, priority 2021, published 2024).
Read-outs that look alike come from different tables or passages of the source. Peptide text beside a SMILES is read from it.

Tests used:
[1] = test system: ROPN1 or ROPN1B over-expressing MDA-MB231 tumor cells; assay: IFNg production of TCR T cells co-cultured with ROPN1 or ROPN1B over-expressing tumor cells (endogenously processed epitope); format: cell-based, human; details: Table 4; responding TCRs / TCRs tested, T cells transduced with TCR specific for the epitope
Protocol: In a first series of in vitro tests, TCR-transduced T cells (6×10^4/well in a 96-well plate) were co-cultured with ROPN1 or ROPN1B over-expressing MDA-MB231 tumor cells (2×10^4/well) in a total volume of 200 μl of T cell medium for 24 h at 37° C. The ROPN1 or ROPN1B over-expressing tumor cells were generated as described under ‘generation and culture of cell lines and T cells’ (see above), and tumor cells were pre-treated 48 h with IFN-Y before co-culture with T cells. […] T cells that fulfilled these criteria (examples in FIG. 10A) were assessed for their sensitivity towards their cognate epitope. […] EC50 values were calculated using GraphPad Prism 5 software.

peptide:MHC = peptide:MHC (Homo sapiens, UniProt P04439, D140Y/D185E/D98H/E176V/E277Q/G131W/G231S/I119V/I121R/I166T/I218V/N151K/N90K/P208A/P217A/Q86G/Q94H/R138H/R169H); assay: TCR gene transfer into healthy donor T cells, surface expression by pMHC staining; format: cell-based; details: Table 4; T cells transduced with TCR specific for the epitope
Source text: (§1) Identified TCRα and TCRβ genes were codon optimized (GeneArt, Regensburg, Germany) and cloned into the pMP71 vector (a kind gift of prof. Wolfgang Uckert, MDC, Berlin, Germany) using a TCRβ-2A-TCRα cassette that was flanked by NotI and EcoRI restriction sites. Upon activation with anti-CD3 mAb OKT3, PBMCs from healthy donors were transduced with TCR-encoding retroviruses (pMP71) or empty vector that were produced by a co-culture of 293T and Phoenix-Ampho packaging cells, as described previously in Lamers et al., Cancer Gene Ther.;13(5):503-509 (2006), doi:10.1038/sj.cgt.7700916, and Straetemans G, Clin Dev Immunol, 2012. Staining for surface-expressed TCR transgenes was performed as described above (FIG. 5A,B).
as §1, with “TCRα” for “Identified TCRα”, “TCR13-2A-TCRα” for “TCRβ-2A-TCRα”, “2012.” for “2012. Staining for surface-expressed TCR transgenes was performed as described above (FIG. 5A,B).”
Staining for surface-expressed TCR transgenes was performed as described above. […] Note that for a single epitope (EVI; SEQ ID NO:24) pMHC complexes were insensitive to detect TCR T cells and replaced by stainings with antibodies directed against TCR-Vb7.1 and CD137. The expression of CD137 was measured following 48 h stimulation with EVI epitope-loaded BSM cells, and threshold for inclusion again being expression in more than 5% of cells in the CD3-positive cell population in at least 2 donors.

HLA-A2 = biological target: T1, HLA-A2 (Homo sapiens, UniProt P04439, D140Y/D185E/D98H/E176V/E277Q/G131W/G231S/I119V/I121R/I166T/I218V/L300P/L318F/N151K/N90K/P208A/P217A/Q86G/Q94H/R138H/R169H/T345S); assay: HLA-A2 stabilization assay using T2 cells; format: binding
T1 construct: The HLA-A2 stabilization assay was performed using T2 cells; endogenous in cells; host or cells: T2 cells (LCLxT lymphoblastoid hybrid cell line 0.1743CEM.T2)

[2] = Table 2 (Example 1), EC50 of peptide titration on T2 cells, read-out: Affinity for HLA A2:01
[3] = Table 4 (Examples 1 and 2), EC50 of peptide titration on T2 cells, read-out: Affinity for HLA.A2.01

`CC[C@H](C)[C@H](NC(=O)[C@H](Cc1ccc(O)cc1)NC(=O)[C@H](CC(N)=O)NC(=O)[C@H](CC(C)C)NC(=O)[C@@H](N)CCSC)C(=O)N[C@@H](CCC(=O)O)C(=O)N[C@@H](CCC(N)=O)C(=O)N[C@@H](CCC(=O)O)C(=O)N[C@H](C(=O)O)C(C)C` (H-MLNYIEQEV-OH; N-terminus and C-terminus assumed) was tested, and the “T cell responses observed (IFNg) against endogenously presented epitope” value (from here on “T cell responses observed (IFNg)”) [1] was 0/2 responses, the “Surface expression % pMHC+ in CD3+” value (peptide:MHC) was 49.7% and the EC50 (HLA-A2; Example 1, top-ranked epitopes, read-out: EC50 (HLA-A2 binding)) was 6.6 µM. It also gave an EC50 (HLA-A2; [2]) of 6.56 µM and an EC50 (HLA-A2; [3]) of 4.82 µM.
`CSCC[C@H](NC(=O)[C@H](CCC(N)=O)NC(=O)[C@H](C)N)C(=O)N[C@@H](Cc1c[nH]c2ccccc12)C(=O)N[C@@H](CCCCN)C(=O)N[C@H](C(=O)N[C@H](C(=O)N[C@@H](CC(N)=O)C(=O)N[C@@H](CC(C)C)C(=O)O)C(C)C)C(C)C` (H-AQMWKVVNL-OH; N-terminus and C-terminus assumed) was tested, and the “T cell responses observed (IFNg)” value [1] was 0/1 responses, the “Surface expression % pMHC+ in CD3+” value (peptide:MHC) was 49.7% and the EC50 (HLA-A2; [2]) was 11.4 µM. The EC50 (HLA-A2; [3]) was 10.5 µM.
For `CC[C@H](C)[C@H](NC(=O)[C@H](Cc1ccc(O)cc1)NC(=O)[C@@H](NC(=O)[C@H](Cc1ccc(O)cc1)NC(=O)[C@H](CC(C)C)NC(=O)[C@@H](N)Cc1ccccc1)[C@@H](C)O)C(=O)N[C@@H](C)C(=O)N[C@@H](CCC(=O)O)C(=O)N[C@H](C(=O)O)C(C)C` (H-FLYTYIAEV-OH; N-terminus and C-terminus assumed), the “T cell responses observed (IFNg)” value [1] was 1/1 responses, the “Surface expression % pMHC+ in CD3+” value (peptide:MHC) was 5.02% and the EC50 (HLA-A2; [3]) was 21.1 µM.
For `CC[C@H](C)[C@H](NC(=O)[C@H](Cc1ccc(O)cc1)NC(=O)[C@@H](NC(=O)[C@H](Cc1ccc(O)cc1)NC(=O)[C@H](CC(C)C)NC(=O)[C@@H](N)Cc1ccccc1)[C@@H](C)O)C(=O)N[C@@H](C)C(=O)N[C@@H](CCCCN)C(=O)N[C@H](C(=O)O)C(C)C` (H-FLYTYIAKV-OH; N-terminus and C-terminus assumed), the “T cell responses observed (IFNg)” value [1] was 1/1 responses, the “Surface expression % pMHC+ in CD3+” value (peptide:MHC) was 33.2% and the EC50 (HLA-A2; [2]) was 10.9 µM. For the same compound, the EC50 (HLA-A2; [3]) was 8.11 µM.
